The LD50 is the dose at which mortality reaches 50%. Read a low LD50 as greater toxicity.

Data set [1] relates to Maus. Nature of the data set: in vivo. As to conditions: Maus, i.p., observation 1 week; 10080 min. As to the method: (§1) Die Applikation der getesteten Substanzen erfolgt 10 min vor Isoproterenol an Gruppen von 3 bis 5 Katzen pro Dosis. […] Blutdrucksenkende Wirkung an der. narkotisierten Ratte. Zur Testung der blutdrucksenkenden Wirkung erhalten Gruppen von 3 bis 5 männlichen Sprague-Dawley-Ratten (Gewicht: 230 - 280 g) in Urethan-Narkose (1,78 g/kg) i.p.) die Substanz intravenös appliziert. Die Messung des Blutdrucks in der A.carotis erfolgt über Statham-Transducer. Als ED 20 % wird die Dosis ermittelt, welche den mittleren Carotisdruck um 20 % senkt. • 3. Antihypertensive Wirkung an spontan hypertonen Ratten. Die Substanzen werden Gruppen von 8 männlichen spontan hypertonen Okamoto-Ratten (Gewicht: 280 - 350 g) oral appliziert. Vor und zwei Stunden nach der Applikation wird der systolische Blutdruck am Rattenschwanz unblutig mit Hilfe von Piezokristallaufnehmern gemessen. Als ED 20 % wird unter Berücksichtigung der Nerte unbehandelter Kontrolltiere die Dosis bestimmt, welche den systolischen Druck um 20 % senkt. • 4. […] Die Beobachtungsdauer beträgt 1 Woche. Die Berechnung der wirksamen Dosen (s. 1.-3.) erfolgte aus den linearen Beziehungen zwischen den Logarithmen der Dosen und der Wirkung mit Hilfe der Regressionsanalyse.

The subject of data set [2] is Isoproterenol--Tachycardie der narkotisierten Katze. Nature of the data set: beta-sympatholytic effect on isoproterenol tachycardia in the anaesthetised cat. Format: in vivo. As to conditions: for ß-Sympatholytische Wirkung R.W. (Relative Wirksamkeit): Propranolol = 1,00; for ED50: Felis catus, iv, read-out: ß-Sympatholytische Wirkung ED 50 %. The procedure: as §1
The subject of data set [3] is narkotisierten Ratte. Nature of the data set: blood-pressure-lowering effect in the anaesthetised rat. As to conditions: for Blutdrucksenkende Wirkung ED 20 %: Urethan-Narkose, dose lowering blood pressure by 20 %; for Tiere gestorben: 10 mg/kg, dead animals of 6; for ED20: Rattus norvegicus, iv, read-out: Blutdrucksenkende Wirkung ED 20 %. As to the method: (§2) Die Applikation der getesteten Substanzen erfolgt 10 min vor Isoproterenol an Gruppen von 3 bis 5 Katzen pro Dosis. […] Blutdrucksenkende Wirkung an der. narkotisierten Ratte. Zur Testung der blutdrucksenkenden Wirkung erhalten Gruppen von 3 bis 5 männlichen Sprague-Dawley-Ratten (Gewicht: 230 - 280 g) in Urethan-Narkose (1,78 g/kg) i.p.) die Substanz intravenös appliziert. Die Messung des Blutdrucks in der A.carotis erfolgt über Statham-Transducer. Als ED 20 % wird die Dosis ermittelt, welche den mittleren Carotisdruck um 20 % senkt. • 3. Antihypertensive Wirkung an spontan hypertonen Ratten. Die Substanzen werden Gruppen von 8 männlichen spontan hypertonen Okamoto-Ratten (Gewicht: 280 - 350 g) oral appliziert. Vor und zwei Stunden nach der Applikation wird der systolische Blutdruck am Rattenschwanz unblutig mit Hilfe von Piezokristallaufnehmern gemessen. Als ED 20 % wird unter Berücksichtigung der Nerte unbehandelter Kontrolltiere die Dosis bestimmt, welche den systolischen Druck um 20 % senkt. • 4. Akute Toxizität an der Maus Zur Bestimmung der akuten Toxizität (LD 50) werden die Substanzen Gruppen von je 10 weiblichen NMRI-Mäusen (Gewicht: 19 - 20 g) intraperitoneal appliziert. Die Beobachtungsdauer beträgt 1 Woche. Die Berechnung der wirksamen Dosen (s. 1.-3.) erfolgte aus den linearen Beziehungen zwischen den Logarithmen der Dosen und der Wirkung mit Hilfe der Regressionsanalyse. Die LD 50 (4.) wurden mit Hilfe der Probit-Analyse bestimmt.

In data set [4] the test system is spontan hypertonen Ratten. Nature of the data set: antihypertensive effect in spontaneously hypertensive rats. As to conditions: spontan hypertone Ratten, oral. The format is in vivo, Okamoto-Ratten. As to the method:
as §2, with “Die LD 50 (4.) wurden mit Hilfe der Probit-Analyse bestimmt.” left out

A short description of data set [5]: in vivo. As to conditions: mouse, in vivo, ip. As to the method: as §1

For “3-Äthyl-5-[2-(2-hydroxy-3-cyclopropylaminopropoxy)-styryl]-isoxazol [Verbindung 8]”, the “Letalität LD 50” value in data set [1] came out at 95 mg/kg. Further, the “ß-sympatholytische Wirksamkeit compared with Propranolol” value in data set [2] is recorded as “etwa wirkungsgleich”. The “ß-Sympatholytische Wirkung ED 50 %” value in data set [2] (Katze, Hexobarbital-Narkose, i.v., dose inhibiting the isoproterenol heart-rate increase by 50 %) is on record as 0,12 mg/kg. For the same compound, the “ß-Sympatholytische Wirkung R.W. (Relative Wirksamkeit)” value in data set [2] (Katze, i.v.) was 0,9. For the same compound, the “Blutdrucksenkende Wirkung ED 20 %” value in data set [3] (Ratte, i.v.) is 0,83 mg/kg.
In the case of `CC(C)NCC(O)COc1cccc2ccccc12` (centres unmarked) [Propranolol, reference compound], the “Antihypertensive Wirkung” value in data set [4] (bis zu einer Dosis von 100 mg/kg) was “wirkungslos”. In data set [3] (Ratte, i.v.), this compound returned a Tiere gestorben of 2 von 6. Besides, the Blutdrucksteigerung result in data set [3] (Ratte, i.v., bis 2,15 mg/kg) is on record as “blutdrucksteigernd”.
For the compound `Cc1cc(C=Cc2ccccc2OCC(O)CNC(C)C)on1` (centres unmarked) [Verbindung 6, 3-Methyl-5-[2-(2-hydroxy-3-isopropyl-aminopropoxy)-styryl]-isoxazol], the LD50 at 168 h in data set [5] stood at 108 mg/kg. Further, the ED50 in data set [2] is 0.0077 mg/kg. In data set [2] (Katze, i.v.), the “ß-Sympatholytische Wirkung R.W. (Relative Wirksamkeit)” value is listed as 14,3. In addition, in data set [3], the ED20 is 0.65 mg/kg.
`Cc1cc(C=Cc2ccccc2OCC(O)CNC(C)(C)C)on1` (centres unmarked) [Verbindung 7, 3-Methyl-5-[2-(2-hydroxy-3-tert.-butylaminopropoxy)-styryl]-isoxazol] came in with a 50% lethal dose (LD50) at 168 h in data set [5] of 123 mg/kg. Besides, in data set [4] (Rattus norvegicus, systolic pressure 2 h after dosing lowered by 20 %, read-out: Antihypertensive Wirkung ED 20 %), the ED20 stood at 14.5 mg/kg. In addition, the ED50 in data set [2] worked out at 0.0055 mg/kg. Also, the “ß-Sympatholytische Wirkung R.W. (Relative Wirksamkeit)” value in data set [2] (Katze, i.v.) is given as 20,0. Besides, in data set [3] (Ratte, i.v.), the “Blutdrucksenkende Wirkung ED 20 %” value is recorded as 0,40 mg/kg, the “ratio of the 10 mg/kg dose to the blood-pressure-lowering dose (0,4 mg/kg)” value is reported as 25 mal and the Tiere gestorben came out at 1 von 6. In data set [3], the ED20 turned out to be 0.4 mg/kg.
`CCc1cc(C=Cc2ccccc2OCC(O)CNC(C)(C)C)on1` (centres unmarked) [Verbindung 9, 3-Äthyl-5-[2-(2-hydroxy-3-tert.-butylaminopropoxy)-styryl]-isoxazol]: the LD50 at 168 h in data set [5] was 84 mg/kg. In data set [2] (Katze, i.v.), the “ß-Sympatholytische Wirkung R.W. (Relative Wirksamkeit)” value is listed as 6,1. Moreover, the ED20 in data set [3] is 0.93 mg/kg.
For `C#CC(C)(C)NCC(O)COc1ccccc1C=Cc1cc(C)no1` (centres unmarked) [Verbindung 10], in that order: 247 mg/kg, 6,5 and 1 mg/kg.

These data come from patent EP0005186A1, “3-Alkyl-5-(2-hydroxystyryl)-isoxazoles and process for their preparation” (BASF Aktiengesellschaft, priority 1978, dated 1979).
